Laboratory results from patent US12370175B2, “Glucocorticoid receptor modulators to treat pancreatic cancer” (Corcept Therapeutics, Inc., priority 2016, dated 2025).
Entries after “also recorded” stand apart in the source; their conditions may differ.

Tests used:
[1] = system: Human Pancreatic carcinoma cells (MIA-PaCa-2); assay: MIA-PaCa-2 xenograft tumor growth in mice, SGRM combined with paclitaxel; type: in vivo, mice (Balbc/c nude); settings: SGRM 30 mg/kg orally on day prior to and same day as paclitaxel 7.5 mg/kg intravenously Q4D; MIA-PaCa-2 subcutaneous tumors
Experimental: Human Pancreatic carcinoma cells (MIA-PaCa-2) were purchased from the American Type Cell Collection (ATCC). The cells were grown in Dulbecco's Modified Eagle's Medium (DMEM) containing 10% (v/v) heat inactivated fetal calf serum and 2.5% horse serum at 37° C. Suspensions of the cells were injected subcutaneously into the left flank of 5-6 week old immunocompromised female mice (Balbc/c nude), 3 million cells per mouse. Tumors were allowed to grow until they reach a volume of 100-200 cubic millimeters (mm^3). Mice were then grouped into four groups, ten (10) per group, and treated with compounds or vehicle as follows. Vehicle or paclitaxel was administered intravenously and SGRMs, i.e., CORT25134 and CORT125281, were administered orally. SGRMs were administered in vehicle ((10% dimethyl sulfoxide (DMSO), 0.1% Tween 80 (polyethylene glycol sorbitan monooleate (polysorbate 80)) and 89.9% hydroxypropyl methylcellulose (HPMC) (0.5%)). Group 1 was dosed with the compound vehicle (10% DMSO, 0.1% Tween 80 and 89.9% HPMC (0.5%)) daily. Group 2 was dosed with paclitaxel at 7.5 mg/kg, every four days (“Q4D”). Group 3 was dosed with both paclitaxel at 7.5 mg/kg Q4D and CORT125134 at 30 mg/kg on the day prior to and the same day as the day paclitaxel was administered. Group 4 was dosed with both paclitaxel at 7.5 mg/kg Q4D and CORT125281 at 30 mg/kg on the day prior to and the same day as the day paclitaxel was administered.
The longest (L) and shortest (S) diameters of the tumors were measured three times a week with electronic calipers and tumor volume was calculated using the formula […], where a and b are the long and short diameters of the tumor, respectively. The tumor growth data are shown in The FIGURE, in which the mean tumor volume as compared to the mean pre-dosing tumor volume for each group of mice is plotted against the number of days of tumor growth since initiation of the treatment.

[2] = system: exocrine pancreatic tumor; assay: Treating a patient having pancreatic cancer with SGRM and nab-paclitaxel (Example 3, hypothetical); type: in vivo, human; settings: 200 mg once a day for eight weeks with nab-paclitaxel 80 mg per square meter on days 1, 8, 15 of 28-day cycle; end of the treatment period
Experimental: A typical pancreatic patient may complain of upper abdomen pain that typically radiates to the back. Such a patient may experience loss of appetite, nausea and vomiting episodes, and may suffer significant weight loss. A CT scan may show the presence of a tumor in the pancreas. The presence of an exocrine pancreatic tumor may be confirmed by histological analysis. Blood ACTH level may be within the normal range for ACTH. Such a patient may be treated with CORT125134 at a dose of 200 mg once a day for eight weeks in combination with an intravenous infusion of nab-paclitaxel at a dose of 80 mg per square meter of body-surface area as an intravenous infusion over 30 minutes on days 1, 8, and 15 of every 28-day cycle. Tumor load may be monitored using enhanced MRI before, during and after such treatment. Imaging results may indicate that the size of the tumor gradually decreases; such reduction may be more than 50% at the end of the treatment period.

[3] = system: metastatic adenocarcinoma of the pancreas; assay: Clinical study of CORT125134 with nab-paclitaxel in a patient with advanced pancreatic cancer (Example 4); type: in vivo, human
Experimental: A patient with a diagnosis of metastatic adenocarcinoma of the pancreas participated in a clinical study evaluating the efficacy of daily administration of 100 mg of the GR antagonist CORT125134 in combination with nab-paclitaxel infusions weekly for three out of four weeks per cycle. A tumor tissue sample obtained during or prior to the patient's previous treatments was found by immunohistochemistry to have high GR expression, with 90 percent of the cells staining for GR and with a large percentage staining with high intensity. Prior to receiving this combined GR antagonist and nab-paclitaxel treatment, the patient had previously received treatment with multiple lines of chemotherapy: gemcitabine monotherapy; eight months of combination chemotherapy treatment with 5-fluorouracil, leucovorin, irinotecan and oxaliplatin (FOLFIRINOX treatment); five months of treatment with gemcitabine combined with nab-paclitaxel; and four months of combination chemotherapy treatment with 5-fluorouracil, leucovorin, and irinotecan hydrochloride (FOLFIRI treatment). These prior treatments were unsuccessful: the patient's cancer progressed despite these prior chemotherapy treatments.
This patient has so far received 8 months (8 cycles) of the combined treatment of daily 100 mg CORT125134 in combination with nab-paclitaxel infusions weekly for three out of four weeks per cycle. […] When scanned again one month later, the tumor volume was still reduced by approximately 40% compared to baseline volume, thus confirming the PR status. […] The patient remains on the treatment, and continues to tolerate the treatment well.

| Structure (SMILES) | tumor growth (mean tumor volume compared to mean pre-dosing tumor volume), combination versus paclitaxel group [1] | reduction of the size of the tumor (enhanced MRI) [2] | tumor growth reduction, comparison among treatment groups [1] | clinical response ([3]; daily 100 mg CORT125134 with nab-paclitaxel infusions weekly three out of four weeks per cycle, 8 months (8 cycles), one patient) | tolerability of the treatment ([3]; daily 100 mg CORT125134 with nab-paclitaxel infusions, 8 months, one patient) | tumor volume reduction compared to baseline volume (CT scans) ([3]; scanned again one month after the third month, daily 100 mg CORT125134 with nab-paclitaxel) | tumor volume reduction compared to baseline (scan) ([3]; seventh month of treatment, daily 100 mg CORT125134 with nab-paclitaxel, one patient) [%] | tumor volume reduction compared to start of study (CT scans) ([3]; third month/cycle of treatment, daily 100 mg CORT125134 with nab-paclitaxel, one patient) |
| --- | --- | --- | --- | --- | --- | --- | --- | --- |
| Cn1ncc(S(=O)(=O)N2CC[C@H]3Cc4c(cnn4-c4ccc(F)cc4)C[C@]3(C(=O)c3cc(C(F)(F)F)ccn3)C2)n1 [CORT125281, ((4aR,8aS)-1-(4-fluorophenyl)-6-((2-methyl-2H-1,2,3-triazol-4-yl)sulfonyl)-4,4a,5,6,7,8,8a,9-octahydro-1H-pyrazolo[3,4-g]isoquinolin-4a-yl)(4-(trifluoromethyl)pyridin-2-yl)methanone] | superior to the paclitaxel group in reducing tumor growth |  |  |  |  |  |  |  |
| Cn1cc(S(=O)(=O)N2CCC3=Cc4c(cnn4-c4ccc(F)cc4)C[C@]3(C(=O)c3cc(C(F)(F)F)ccn3)C2)cn1 [CORT125134, (R)-(1-(4-fluorophenyl)-6-((1-methyl-1H-pyrazol-4-yl)sulfonyl)-4,4a,5,6,7,8-hexahydro-1H-pyrazolo[3,4-g]isoquinolin-4a-yl)(4-(trifluoromethyl)pyridin-2-yl)methanone] | superior to the paclitaxel group in reducing tumor growth | more than 50% | most significant tumor growth reduction | partial response (PR); also recorded: sustained partial response | tolerated the treatment reasonably well; also recorded: tolerated the treatment with CORT125134 and nab-paclitaxel well | approximately 40% | 40 | approximately 40% |
